Experimental data reported in ChEMBL document CHEMBL1129211, “Design and synthesis of sialyl Lex mimetics based on carbocyclic scaffolds derived from () quinic acid” (Bioorg Med Chem Lett, 1997).

How the values were obtained:
[1] = biological target: T1, E-selectin (Homo sapiens) (UniProt P16581); test: Tested for binding activity against Selectin E of the compound; inactive
T1 sequence (whole entry): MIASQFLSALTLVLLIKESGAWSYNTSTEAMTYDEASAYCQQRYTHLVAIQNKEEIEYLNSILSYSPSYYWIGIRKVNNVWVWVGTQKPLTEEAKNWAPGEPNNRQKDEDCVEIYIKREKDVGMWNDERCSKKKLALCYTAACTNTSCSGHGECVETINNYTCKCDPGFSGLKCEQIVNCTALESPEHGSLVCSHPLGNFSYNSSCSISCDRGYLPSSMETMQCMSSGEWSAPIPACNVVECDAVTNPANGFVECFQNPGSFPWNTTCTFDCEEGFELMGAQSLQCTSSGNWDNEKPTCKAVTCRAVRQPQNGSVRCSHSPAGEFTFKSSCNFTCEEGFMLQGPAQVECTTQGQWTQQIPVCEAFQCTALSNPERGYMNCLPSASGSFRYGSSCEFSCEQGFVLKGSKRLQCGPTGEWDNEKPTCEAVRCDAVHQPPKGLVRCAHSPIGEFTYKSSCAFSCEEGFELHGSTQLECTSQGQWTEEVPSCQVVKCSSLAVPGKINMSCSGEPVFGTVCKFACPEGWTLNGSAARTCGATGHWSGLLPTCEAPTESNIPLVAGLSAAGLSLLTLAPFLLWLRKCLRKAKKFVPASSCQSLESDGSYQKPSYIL

[2] = biological target: T1, E-selectin (Homo sapiens); test: Tested for binding activity against Selectin E of the compound

Compound | Activity [1] | Activity [2]
CC1OC(OC(C)(C)COCC2(O)CCC(O)C(OCC(=O)O)C2O)C(O)C(O)C1O (centres undefined) | > 10 mM | 
CC(=O)N[C@H]1[C@H]([C@H](O)[C@H](O)CO)O[C@@](O[C@@H]2[C@H](O)[C@H](O[C@@H]3C[C@](O)(CO)C[C@H](O)[C@H]3O[C@@H]3O[C@@H](C)[C@@H](O)[C@H](O)[C@@H]3O)O[C@@H](CO)[C@@H]2O)(C(=O)O)C[C@H]1O |  | 1 mM
C[C@@H]1O[C@@H](O[C@@H]2[C@@H](O)C[C@@](O)(CO)C[C@H]2O[C@@H]2O[C@@H](CO)[C@H](O)[C@H](OCC(=O)O)[C@@H]2O)[C@@H](O)[C@@H](O)[C@@H]1O | > 10 mM | 
CC1OC(OC(C)(C)COCC2CC(O)C(O)C(OCC(=O)O)C2)C(O)C(O)C1O (centres undefined) | > 10 mM | 
